Converted amounts (≈) assume the structure as drawn. The source made the active and inactive calls. The rule behind the calls is not given here.
Legend:
Type in all cases: functional
Staphylococcus aureus [1] = experiment: Antibacterial activity against Staphylococcus aureus ATCC 29213 after 18 hrs by twofold serial agar dilution technique; settings: ATCC 29213, 18 h
[2] = tested on: Bordetella bronchiseptica; experiment: Antibacterial activity against Bordetella bronchiseptica ATCC 4617 after 18 hrs by twofold serial agar dilution technique; settings: for MIC: ATCC 4617, 18 h
Pseudomonas aeruginosa [3] = experiment: Antibacterial activity against Pseudomonas aeruginosa ATCC 27853 after 18 hrs by twofold serial agar dilution technique; settings: for MIC: ATCC 27853, 18 h
[4] = tested on: Staphylococcus epidermidis; experiment: Antibacterial activity against Staphylococcus epidermidis ATCC 12228 assessed as zone of inhibition at 400 ug/disc after 18 hrs by disc diffusion method; settings: ATCC 12228, 18 h, read-out: DIZ
Candida albicans [5] = experiment: Antifungal activity against Candida albicans ATCC 90028 after 24 hrs by twofold serial agar dilution technique; settings: for MIC: ATCC 90028, 24 h
Proteus vulgaris [6] = experiment: Antibacterial activity against Proteus vulgaris NCTC 4635 after 18 hrs by twofold serial agar dilution technique; settings: for MIC: NCTC 4635, 18 h
Candida parapsilosis = experiment: Antifungal activity against Candida parapsilosis ATCC 22019 after 24 hrs by twofold serial agar dilution technique; settings: for MIC: Lodderomyces parapsilosis, ATCC 22019, 24 h
Pseudomonas aeruginosa [7] = experiment: Antibacterial activity against Pseudomonas aeruginosa NCTC 6749 after 18 hrs by twofold serial agar dilution technique; settings: for MIC: NCTC 6749, 18 h
Staphylococcus aureus [8] = experiment: Antibacterial activity against Staphylococcus aureus ATCC 29213 assessed as zone of inhibition at 400 ug/disc after 18 hrs by disc diffusion method; settings: ATCC 29213, 18 h, read-out: DIZ
Pseudomonas aeruginosa [9] = experiment: Antibacterial activity against Pseudomonas aeruginosa ATCC 15442 after 18 hrs by twofold serial agar dilution technique; settings: for MIC: ATCC 15442, 18 h
Escherichia coli [10] = experiment: Antibacterial activity against Escherichia coli NCTC 8196 after 18 hrs by twofold serial agar dilution technique; settings: for MIC: NCTC 8196, 18 h
Staphylococcus aureus [11] = experiment: Antibacterial activity against Staphylococcus aureus ATCC 6538 assessed as zone of inhibition at 400 ug/disc after 18 hrs by disc diffusion method; settings: ATCC 6538, 18 h, read-out: DIZ
[12] = tested on: Staphylococcus epidermidis; experiment: Antibacterial activity against Staphylococcus epidermidis ATCC 35984 assessed as zone of inhibition at 400 ug/disc after 18 hrs by disc diffusion method; settings: ATCC 35984, 18 h, read-out: DIZ
Staphylococcus aureus [13] = experiment: Antibacterial activity against Staphylococcus aureus ATCC 25923 assessed as zone of inhibition at 400 ug/disc after 18 hrs by disc diffusion method; settings: ATCC 25923, 18 h, read-out: DIZ
Candida albicans [14] = experiment: Antifungal activity against Candida albicans ATCC 10231 after 24 hrs by twofold serial agar dilution technique; settings: for MIC: ATCC 10231, 24 h
Escherichia coli [15] = experiment: Antibacterial activity against Escherichia coli ATCC 10538 after 18 hrs by twofold serial agar dilution technique; settings: for MIC: ATCC 10538, 18 h
[16] = tested on: Staphylococcus epidermidis; experiment: Antibacterial activity against Staphylococcus epidermidis ATCC 35984 after 18 hrs by twofold serial agar dilution technique; settings: ATCC 35984, 18 h
Staphylococcus aureus [17] = experiment: Antibacterial activity against Staphylococcus aureus NCTC 4163 assessed as zone of inhibition at 400 ug/disc after 18 hrs by disc diffusion method; settings: NCTC 4163, 18 h, read-out: DIZ
Staphylococcus aureus [18] = experiment: Antibacterial activity against Staphylococcus aureus ATCC 6538 after 18 hrs by twofold serial agar dilution technique; settings: ATCC 6538, 18 h
Pseudomonas aeruginosa [19] = experiment: Antibacterial activity against Pseudomonas aeruginosa ATCC 27853 assessed as zone of inhibition at 400 ug/disc after 18 hrs by disc diffusion method; settings: ATCC 27853, 18 h, read-out: DIZ
[20] = tested on: Bordetella bronchiseptica; experiment: Antibacterial activity against Bordetella bronchiseptica ATCC 4617 assessed as zone of inhibition at 400 ug/disc after 18 hrs by disc diffusion method; settings: ATCC 4617, 18 h, read-out: DIZ
Escherichia coli [21] = experiment: Antibacterial activity against Escherichia coli ATCC 25922 assessed as zone of inhibition at 400 ug/disc after 18 hrs by disc diffusion method; settings: ATCC 25922, 18 h, read-out: DIZ
Staphylococcus aureus [22] = experiment: Antibacterial activity against Staphylococcus aureus NCTC 4163 after 18 hrs by twofold serial agar dilution technique; settings: NCTC 4163, 18 h
Staphylococcus aureus [23] = experiment: Antibacterial activity against Staphylococcus aureus ATCC 25923 after 18 hrs by twofold serial agar dilution technique; settings: ATCC 25923, 18 h
[24] = tested on: Staphylococcus epidermidis; experiment: Antibacterial activity against Staphylococcus epidermidis ATCC 12228 after 18 hrs by twofold serial agar dilution technique; settings: ATCC 12228, 18 h
Pseudomonas aeruginosa [25] = experiment: Antibacterial activity against Pseudomonas aeruginosa NCTC 6749 assessed as zone of inhibition at 400 ug/disc after 18 hrs by disc diffusion method; settings: NCTC 6749, 18 h, read-out: DIZ
Proteus vulgaris [26] = experiment: Antibacterial activity against Proteus vulgaris NCTC 4635 assessed as zone of inhibition at 400 ug/disc after 18 hrs by disc diffusion method; settings: NCTC 4635, 18 h, read-out: DIZ
Escherichia coli [27] = experiment: Antibacterial activity against Escherichia coli ATCC 10538 assessed as zone of inhibition at 400 ug/disc after 18 hrs by disc diffusion method; settings: ATCC 10538, 18 h, read-out: DIZ
Escherichia coli [28] = experiment: Antibacterial activity against Escherichia coli NCTC 8196 assessed as zone of inhibition at 400 ug/disc after 18 hrs by disc diffusion method; settings: NCTC 8196, 18 h, read-out: DIZ
Pseudomonas aeruginosa [29] = experiment: Antibacterial activity against Pseudomonas aeruginosa ATCC 15442 assessed as zone of inhibition at 400 ug/disc after 18 hrs by disc diffusion method; settings: ATCC 15442, 18 h, read-out: DIZ
Escherichia coli [30] = experiment: Antibacterial activity against Escherichia coli ATCC 25922 after 18 hrs by twofold serial agar dilution technique; settings: ATCC 25922, 18 h

| Structure (SMILES) | MIC (Staphylococcus aureus [1]) [µg/mL] | zone of inhibition at 400 µg/disc [4] [mm] | zone of inhibition at 400 µg/disc (Staphylococcus aureus [8]) [mm] | zone of inhibition at 400 µg/disc (Staphylococcus aureus [11]) [mm] | zone of inhibition at 400 µg/disc [12] [mm] | zone of inhibition at 400 µg/disc (Staphylococcus aureus [13]) [mm] | MIC [16] [µg/mL] | zone of inhibition at 400 µg/disc (Staphylococcus aureus [17]) [mm] | MIC (Staphylococcus aureus [18]) [µg/mL] | MIC [2] [µg/mL] | MIC (Pseudomonas aeruginosa [3]) [µg/mL] | zone of inhibition at 400 µg/disc (Pseudomonas aeruginosa [19]) [mm] | zone of inhibition at 400 µg/disc [20] [mm] | zone of inhibition at 400 µg/disc (Escherichia coli [21]) [mm] | MIC (Staphylococcus aureus [22]) [µg/mL] | MIC (Staphylococcus aureus [23]) [µg/mL] | MIC [24] [µg/mL] | MIC (Candida albicans [5]) [µg/mL] | MIC (Proteus vulgaris [6]) [µg/mL] | MIC (Candida parapsilosis) [µg/mL] | further results |
| --- | --- | --- | --- | --- | --- | --- | --- | --- | --- | --- | --- | --- | --- | --- | --- | --- | --- | --- | --- | --- | --- |
| O=C(O)c1cn(C2CC2)c2cc(N3CCNCC3)c(F)cc2c1=O [CIPROFLOXACIN] | 0.25 (≈ 0.754 µM) | 30 | 22 | 28 | 32 | 26 | 0.25 (≈ 0.754 µM) | 26 |  |  |  |  |  |  |  |  |  |  |  |  | Activity [2]: inactive; Activity (Pseudomonas aeruginosa [3]): inactive; Activity (Candida albicans [5]): inactive; Activity (Proteus vulgaris [6]): inactive; Activity (Candida parapsilosis): inactive; Activity (Pseudomonas aeruginosa [7]): inactive; Activity (Pseudomonas aeruginosa [9]): inactive; Activity (Escherichia coli [10]): inactive; Activity (Candida albicans [14]): inactive; Activity (Escherichia coli [15]): inactive |
| CC[C@@H](C(=O)[C@@H](C)[C@@H](O)[C@H](C)[C@@H]1O[C@@H]([C@@H](CC)C(=O)NCCOCCOCCOC)CC[C@@H]1C)[C@H]1O[C@]2(C=C[C@@H](O)[C@]3(CC[C@@](C)([C@H]4CC[C@](O)(CC)[C@H](C)O4)O3)O2)[C@H](C)C[C@@H]1C | ≥ 256 | 10 | 10 | 10 | 10 | 10 | ≥ 256 | 10 | ≥ 256 | ≥ 256 | ≥ 256 | 10 | 10 | 10 | ≥ 256 | ≥ 256 | ≥ 256 | ≥ 256 | ≥ 256 | ≥ 256 | MIC (Pseudomonas aeruginosa [7]): ≥ 256 µg/mL; MIC (Pseudomonas aeruginosa [9]): ≥ 256 µg/mL; MIC (Escherichia coli [10]): ≥ 256 µg/mL; zone of inhibition at 400 µg/disc (Pseudomonas aeruginosa [25]): 10 mm; zone of inhibition at 400 µg/disc (Proteus vulgaris [26]): 10 mm; zone of inhibition at 400 µg/disc (Escherichia coli [27]): 10 mm; MIC (Candida albicans [14]): ≥ 256 µg/mL; MIC (Escherichia coli [15]): ≥ 256 µg/mL; zone of inhibition at 400 µg/disc (Escherichia coli [28]): 10 mm; zone of inhibition at 400 µg/disc (Pseudomonas aeruginosa [29]): 10 mm; MIC (Escherichia coli [30]): ≥ 256 µg/mL |
| CC[C@@H](C(=O)[C@@H](C)[C@@H](O)[C@H](C)[C@@H]1O[C@@H]([C@@H](CC)C(=O)NCCc2c[nH]c3ccccc23)CC[C@@H]1C)[C@H]1O[C@]2(C=C[C@@H](O)[C@]3(CC[C@@](C)([C@H]4CC[C@](O)(CC)[C@H](C)O4)O3)O2)[C@H](C)C[C@@H]1C | ≥ 256 | 10 | 10 | 10 | 10 | 10 | ≥ 256 | 10 | ≥ 256 | ≥ 256 | ≥ 256 | 10 | 10 | 10 | ≥ 256 | ≥ 256 | ≥ 256 | ≥ 256 | ≥ 256 | ≥ 256 | MIC (Pseudomonas aeruginosa [7]): ≥ 256 µg/mL; MIC (Pseudomonas aeruginosa [9]): ≥ 256 µg/mL; MIC (Escherichia coli [10]): ≥ 256 µg/mL; zone of inhibition at 400 µg/disc (Pseudomonas aeruginosa [25]): 10 mm; zone of inhibition at 400 µg/disc (Proteus vulgaris [26]): 10 mm; zone of inhibition at 400 µg/disc (Escherichia coli [27]): 10 mm; MIC (Candida albicans [14]): ≥ 256 µg/mL; MIC (Escherichia coli [15]): ≥ 256 µg/mL; zone of inhibition at 400 µg/disc (Escherichia coli [28]): 10 mm; zone of inhibition at 400 µg/disc (Pseudomonas aeruginosa [29]): 10 mm; MIC (Escherichia coli [30]): ≥ 256 µg/mL |

Source: ChEMBL document CHEMBL2046376, “Synthesis and antimicrobial activity of amide derivatives of polyether antibiotic-salinomycin” (2012)
